In US9062002B2, “Substituted pyridine derivatives as FabI inhibitors” (Aurigene Discovery Technologies Limited, priority 2011, dated 2015):
Converted amounts (≈) assume the structure as drawn. Read-outs that look alike come from different tables or passages of the source.

Experiments:
MRSE = test: MIC by broth microdilution method; format: cell-based; conditions: for MIC: Staphylococcus epidermidis, MRSA / MRSE, read-out: MIC Vs MRSA (μg/ml) MRSE
MRSA = test: MIC by broth microdilution method; format: cell-based; conditions: for MIC: Staphylococcus aureus, read-out: MIC Vs MRSA (μg/ml) MRSA
MSSA = test: MIC by broth microdilution method; format: cell-based; conditions: for MIC: Staphylococcus aureus, MRSA / MSSA, read-out: MIC Vs MRSA (μg/ml) MSSA
Fab I = conditions: 1 μM compound
[1] = Metabolic stability study in mouse liver microsomes; format: in vitro ADME; conditions: 1 μM, 37° C.
Experimental: The above selected compounds have protected mice from infection at ED50 doses. Metabolic Stability Study: In vitro metabolic stability of the compounds was done in mouse liver microsomes prepared in house as per standard protocol. Compounds were tested at 1 μM concentration. Compounds were incubated for 15 and 60 minutes at 37° C. with 100 rpm in shaker bath. After the incubation samples were analysed by LC/MS (API-4000). Respective control (Propranalol) was included in the study.

Structure (SMILES): O=C1CCc2cc(/C=C/C(=O)N3CC=C(c4ccc(F)cc4)CC3)cnc2N1 [Compound 8]
- MIC Vs MRSA (μg/ml) MRSE (MRSE; MRSE, broth microdilution): 8 µg/mL (≈ 21.2 µM)
- MIC Vs MRSA (μg/ml) MRSA (MRSA; MRSA, broth microdilution): 2 µg/mL (≈ 5.3 µM)
- MIC Vs MRSA (μg/ml) MSSA (MSSA; MSSA, broth microdilution): 2 µg/mL (≈ 5.3 µM)
- FAB-I inhibition %@1 μM (Fab I): 108%

Structure (SMILES): O=C1CCc2cc(/C=C/C(=O)N3CC=C(Cc4cccs4)CC3)cnc2N1 [Compound 84]
- MIC Vs MRSA (μg/ml) MRSE (MRSE): 0.25 µg/mL (≈ 0.659 µM)
- MIC Vs MRSA (μg/ml) MRSA (MRSA): 0.25 µg/mL (≈ 0.659 µM)
- MIC Vs MRSA (μg/ml) MSSA (MSSA): 0.125 µg/mL (≈ 0.329 µM)
- FAB-I inhibition %@1 μM (Fab I): 100%

Structure (SMILES): O=C1CCc2cc(/C=C/C(=O)N3CC=C(COc4ccc(Cl)cc4)CC3)cnc2N1 [Compound 113]
- MIC Vs MRSA (μg/ml) MRSE (MRSE; MRSE, broth microdilution): >128 µg/mL
- MIC Vs MRSA (μg/ml) MRSA (MRSA; MRSA, broth microdilution): >128 µg/mL
- MIC Vs MRSA (μg/ml) MSSA (MSSA; MSSA, broth microdilution): >128 µg/mL
- FAB-I inhibition %@1 μM (Fab I): 36%

Structure (SMILES): O=C1CCc2cc(/C=C/C(=O)N3CC=C(Cc4ccccc4)CC3)cnc2N1 [Compound 62]
- Percentage of compound remained after 15 min [1]: 78.5%
- Percentage of compound remained after 60 min [1]: 54.2%
- MIC Vs MRSA (μg/ml) MRSE (MRSE): 0.5 µg/mL (≈ 1.34 µM)
- MIC Vs MRSA (μg/ml) MRSA (MRSA): 0.5 µg/mL (≈ 1.34 µM)
- MIC Vs MRSA (μg/ml) MSSA (MSSA): 0.25 µg/mL (≈ 0.669 µM)
- FAB-I inhibition %@1 μM (Fab I): 76%

Structure (SMILES): O=C1CCc2cc(/C=C/C(=O)N3CC=C(Cc4ccccc4F)CC3)cnc2N1 [Compound 66]
- MIC Vs MRSA (μg/ml) MRSE (MRSE): 0.25 µg/mL (≈ 0.639 µM)
- MIC Vs MRSA (μg/ml) MRSA (MRSA): 0.25 µg/mL (≈ 0.639 µM)
- MIC Vs MRSA (μg/ml) MSSA (MSSA): 0.25 µg/mL (≈ 0.639 µM)
- FAB-I inhibition %@1 μM (Fab I): 84%

Structure (SMILES): O=C1CCc2cc(/C=C/C(=O)N3CC=C(Cn4cccn4)CC3)cnc2N1 [Compound 100]
- MIC Vs MRSA (μg/ml) MRSE (MRSE; MRSE, broth microdilution): 128 µg/mL (≈ 352 µM)
- MIC Vs MRSA (μg/ml) MRSA (MRSA; MRSA, broth microdilution): 128 µg/mL (≈ 352 µM)
- MIC Vs MRSA (μg/ml) MSSA (MSSA; MSSA, broth microdilution): 128 µg/mL (≈ 352 µM)
- FAB-I inhibition %@1 μM (Fab I): 77%

Structure (SMILES): O=C1CCc2cc(/C=C/C(=O)N3CC=C(Cc4sccc4Cl)CC3)cnc2N1 [Compound 87]
- MIC Vs MRSA (μg/ml) MRSE (MRSE): 0.5 µg/mL (≈ 1.21 µM)
- MIC Vs MRSA (μg/ml) MRSA (MRSA): 0.5 µg/mL (≈ 1.21 µM)
- MIC Vs MRSA (μg/ml) MSSA (MSSA): 0.5 µg/mL (≈ 1.21 µM)
- FAB-I inhibition %@1 μM (Fab I): 69.05%

Structure (SMILES): O=C1CCc2cc(/C=C/C(=O)N3CC=C(Cc4cccc(Cl)c4)CC3)cnc2N1 [Compound 67]
- MIC Vs MRSA (μg/ml) MRSE (MRSE; MRSE, broth microdilution): 2 µg/mL (≈ 4.9 µM)
- MIC Vs MRSA (μg/ml) MRSA (MRSA; MRSA, broth microdilution): 1 µg/mL (≈ 2.45 µM)
- MIC Vs MRSA (μg/ml) MSSA (MSSA; MSSA, broth microdilution): 2 µg/mL (≈ 4.9 µM)
- FAB-I inhibition %@1 μM (Fab I): 63%

Structure (SMILES): CN1CC(=O)Nc2ncc(/C=C/C(=O)N3CC=C(Cc4cccs4)CC3)cc2C1 [Compound 93, (E)-4-methyl-7-(3-oxo-3-(4-(thiophen-2-ylmethyl)-5,6-dihydropyridin-1(2H)-yl)prop-1-en-1-yl)-4,5-dihydro-1H-pyrido[2,3-e][1,4]diazepin-2(3H)-one]
- Percentage of compound remained after 15 min [1]: 16.1%
- Percentage of compound remained after 60 min [1]: 1.1%
- MIC (MRSE; MRSE, broth microdilution): 1 µg/mL (≈ 2.45 µM)
- MIC (MRSA; MRSA, broth microdilution): 0.5 µg/mL (≈ 1.22 µM)
- MIC (MSSA; MSSA, broth microdilution): 0.5 µg/mL (≈ 1.22 µM)
- FAB-I inhibition %@1 μM (Fab I): 93%

Structure (SMILES): O=C1CCc2cc(/C=C/C(=O)N3CC=C(Cc4nccs4)CC3)cnc2N1 [Compound 97]
- MIC Vs MRSA (μg/ml) MRSE (MRSE): 1 µg/mL (≈ 2.63 µM)
- MIC Vs MRSA (μg/ml) MRSA (MRSA): 0.5 µg/mL (≈ 1.31 µM)
- MIC Vs MRSA (μg/ml) MSSA (MSSA): 0.5 µg/mL (≈ 1.31 µM)
- FAB-I inhibition %@1 μM (Fab I): 66.85%

Structure (SMILES): O=C1CCNc2cc(/C=C/C(=O)N3CC=C(Cc4cccs4)CC3)cnc2N1 [Compound 91, (E)-8-(3-oxo-3-(4-(thiophen-2-ylmethyl)-5,6-dihydropyridin-1(2H)-yl)prop-1-en-1-yl)-2,3-dihydro-1H-pyrido[2,3-b][1,4]diazepin-4(5H)-one]
- Percentage of compound remained after 15 min [1]: 81.3%
- Percentage of compound remained after 60 min [1]: 79.3%
- MIC (MRSE; MRSE, broth microdilution): 0.5 µg/mL (≈ 1.27 µM)
- MIC (MRSA; MRSA, broth microdilution): 0.5 µg/mL (≈ 1.27 µM)
- MIC (MSSA; MSSA, broth microdilution): 0.25 µg/mL (≈ 0.634 µM)
- FAB-I inhibition %@1 μM (Fab I): 93%

Structure (SMILES): O=C(/C=C/c1cnc2c(c1)CN(CCN1CCOCC1)C(=O)N2)N1CC=C(Cc2cccs2)CC1 [Compound 90, (E)-3-(2-morpholinoethyl)-6-(3-oxo-3-(4-(thiophen-2-ylmethyl)-5,6-dihydropyridin-1(2H)-yl)prop-1-en-1-yl)-3,4-dihydro pyrido[2,3-d]pyrimidin-2(1H)-one]
- Percentage of compound remained after 15 min [1]: 32.4%
- Percentage of compound remained after 60 min [1]: 22.9%
- MIC (MRSE; MRSE, broth microdilution): > 128 µg/mL
- MIC (MRSA; MRSA, broth microdilution): > 128 µg/mL
- MIC (MSSA; MSSA, broth microdilution): > 128 µg/mL
- FAB-I inhibition %@1 μM (Fab I): 89%

Structure (SMILES): CC(=O)Nc1ccc(/C=C/C(=O)N2CC=C(Cc3cccs3)CC2)cn1 [Compound 88, (E)-N-(5-(3-oxo-3-(4-(thiophen-2-ylmethyl)-5,6-dihydropyridin-1(2H)-yl)prop-1-en-1-yl)pyridin-2-yl)acetamide]
- Percentage of compound remained after 15 min [1]: 11.1%
- Percentage of compound remained after 60 min [1]: 5.5%
- MIC (MRSE; MRSE, broth microdilution): > 128 µg/mL
- MIC (MRSA; MRSA, broth microdilution): > 128 µg/mL
- MIC (MSSA; MSSA, broth microdilution): > 128 µg/mL
- FAB-I inhibition %@1 μM (Fab I): 87%

Structure (SMILES): Cc1ccc(CC2=CCN(C(=O)/C=C/c3cnc4c(c3)CCC(=O)N4)CC2)cc1 [Compound 70]
- MIC Vs MRSA (μg/ml) MRSE (MRSE): 2 µg/mL (≈ 5.16 µM)
- MIC Vs MRSA (μg/ml) MRSA (MRSA): 1 µg/mL (≈ 2.58 µM)
- MIC Vs MRSA (μg/ml) MSSA (MSSA): 1 µg/mL (≈ 2.58 µM)
- FAB-I inhibition %@1 μM (Fab I): 63.47%

Structure (SMILES): O=C1CCc2cc(/C=C/C(=O)N3CC=C(COc4ccccc4)CC3)cnc2N1 [Compound 107, (E)-6-(3-oxo-3-(4-(phenoxymethyl)-5,6-dihydropyridin-1(2H)-yl)prop-1-en-1-yl)-3,4-dihydro-1,8-naphthyridin-2(1H)-one]
- MIC (MRSE; MRSE, broth microdilution): 4 µg/mL (≈ 10.3 µM)
- MIC (MRSA; MRSA, broth microdilution): 4 µg/mL (≈ 10.3 µM)
- MIC (MSSA; MSSA, broth microdilution): 4 µg/mL (≈ 10.3 µM)
- FAB-I inhibition %@1 μM (Fab I): 95%

Structure (SMILES): CC(C)(C)OC(=O)N1CCC2(CC1)Cc1cc(/C=C/C(=O)N3CC=C(Cc4cccs4)CC3)cnc1NC2=O [Compound 94, (E)-tert-butyl 2-oxo-6-(3-oxo-3-(4-(thiophen-2-ylmethyl)-5,6-dihydropyridin-1(2H)-yl)prop-1-en-1-yl)-2,4-dihydro-1H-spiro[[1,8]naphthyridine-3,4′-piperidine]-1′-carboxylate]
- Percentage of compound remained after 15 min [1]: 55.7%
- Percentage of compound remained after 60 min [1]: 37.6%
- MIC (MRSE; MRSE, broth microdilution): 1 µg/mL (≈ 1.82 µM)
- MIC (MRSA; MRSA, broth microdilution): 0.5 µg/mL (≈ 0.911 µM)
- MIC (MSSA; MSSA, broth microdilution): 0.5 µg/mL (≈ 0.911 µM)

Structure (SMILES): O=C1CCc2cc(/C=C/C(=O)N3CC=C(Cc4cccc(F)c4)CC3)cnc2N1 [Compound 65]
- Percentage of compound remained after 15 min [1]: 90.6%
- Percentage of compound remained after 60 min [1]: 75.0%
- MIC Vs MRSA (μg/ml) MRSE (MRSE): 0.5 µg/mL (≈ 1.28 µM)
- MIC Vs MRSA (μg/ml) MRSA (MRSA): 0.25 µg/mL (≈ 0.639 µM)
- MIC Vs MRSA (μg/ml) MSSA (MSSA): 0.25 µg/mL (≈ 0.639 µM)
- FAB-I inhibition %@1 μM (Fab I): 90%

Structure (SMILES): O=C1CCc2cc(/C=C/C(=O)N3CC=C(c4ccccc4)CC3)cnc2N1 [Compound 2, (E)-6-(3-oxo-3-(4-phenyl-5,6-dihydropyridin-1(2H)-yl)prop-1-en-1-yl)-3,4-dihydro-1,8-naphthyridin-2(1H)-one]
- Percentage of compound remained after 15 min [1]: 99.7%
- Percentage of compound remained after 60 min [1]: 97.9%
- MIC (MRSE; MRSE, broth microdilution): 4 µg/mL (≈ 11.1 µM)
- MIC (MRSA; MRSA, broth microdilution): 0.5 µg/mL (≈ 1.39 µM)
- MIC (MSSA; MSSA, broth microdilution): 0.5 µg/mL (≈ 1.39 µM)
- FAB-I inhibition %@1 μM (Fab I): 86%
